Measured values as given in US10954252B1, “Inhibitors of human immunodeficiency virus replication” (ViiV HEALTHCARE UK (NO.5) LIMITED, priority 2017, dated 2021).

What was measured:
Type in all cases: cell-based
[1] = test system: recombinant NL4-3 virus (nef section replaced with Renilla luciferase gene) in MT-2 cells; assay: HIV cell culture assay (antiviral activity, luciferase readout); details: MT-2 cells infected for 4-5 days with recombinant NL4-3 luciferase virus
Method in brief: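 NL4-3 reporter virus carrying Renilla luciferase in place of part of nef, produced in 293T cells, was used to infect MT-2 cells for 4-5 days with serial compound dilutions. Luciferase activity was read with a live-cell substrate; EC50 derived from the median effect equation.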

uninfected MT2 cells = assay: Compound cytotoxicity, XTT-based colorimetric assay
Method in brief: (§1)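 CC50 from uninfected MT2 cells run under the antiviral-assay protocol without virus. Viability read on day 4 by XTT colorimetric assay.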

[2] = as above; details: human, uninfected MT2 cells
Method in brief: as §1

| Structure (SMILES) | EC50 ([1]; Table 1a) | CC50 (uninfected MT2 cells; Table 1a, day 4, XTT) | EC50 ([1]; Table 1) | CC50 (uninfected MT2 cells; Table 1, day 4, XTT) | other results |
| --- | --- | --- | --- | --- | --- |
| COc1ccc2c(=O)n(-c3ccc(Cl)c4c(NS(C)(=O)=O)nn(C)c34)c([C@H](Cc3cc(F)cc(F)c3)NC(=O)Cn3ccc(C4CC4)n3)nc2n1 (mixture of isomers) [Example 58.2, N-[(1S)-1-[3-(4-chloro-3-methanesulfonamido-1-methyl-1H-indazol-7-yl)-7-methoxy-4-oxo-3H,4H-pyrido[2,3-d]pyrimidin-2-yl]-2-(3,5-difluorophenyl)ethyl]-2-(3-cyclopropyl-1H-pyrazol-1-yl)acetamide] | 0.168 nM | > 1000 nM |  |  |  |
| Cn1nc(NS(C)(=O)=O)c2c(Cl)ccc(-n3c([C@H](Cc4cc(F)cc(F)c4)NC(=O)Cn4nc(C(F)F)c5c4C(F)(F)[C@@H]4C[C@H]54)nc4cc(Cl)ccc4c3=O)c21 (mixture of isomers) [Example 168, N—((S)-1-(7-chloro-3-(4-chloro-1-methyl-3-(methylsulfonamido)-1H-indazol-7-yl)-4-oxo-3,4-dihydroquinazolin-2-yl)-2-(3,5-difluorophenyl)ethyl)-2-((3bS,4aR)-3-(difluoromethyl)-5,5-difluoro-3b,4,4a,5-tetrahydro-1H-cyclopropa[3,4]cyclopenta[1,2-c]pyrazol-1-yl)acetamide] | 0.058 nM | > 1000 nM |  |  |  |
| Cn1nc(NS(C)(=O)=O)c2c(Cl)ccc(-n3c([C@H](Cc4cc(F)cc(F)c4)NC(=O)Cn4ccc(C5CC5)n4)nc4cc(C(F)(F)F)ccc4c3=O)c21 (single isomer, unassigned) [Example 151] |  | > 1000 nM |  |  | EC50 ([1]; Renilla, NL43, Table 1a): 0.74 nM |
| Cn1nc(NS(C)(=O)=O)c2c(Cl)ccc(-c3cc4[nH]ccc4nc3C(Cc3cc(F)cc(F)c3)NC(=O)Cn3nc(C(F)F)c4c3C(F)(F)[C@@H]3C[C@H]43)c21 (single isomer, unassigned) [Example 5.4] |  |  | 0.2 nM | > 10000 nM |  |
| COc1ccc2nc([C@H](Cc3cc(F)cc(F)c3)NC(=O)Cn3nc(C(F)F)c4c3C(F)(F)[C@@H]3C[C@H]43)n(-c3ccc(Cl)c4c(NS(C)(=O)=O)nn(C)c34)c(=O)c2c1 (single isomer, unassigned) [Example 174] | 0.096 nM | > 1000 nM |  |  |  |
| O=C(Cn1nc(C(F)F)c2c1C(F)(F)[C@@H]1C[C@H]21)NC(Cc1cc(F)cc(F)c1)c1nc2ncsc2cc1-c1ccc2scnc2c1 (single isomer, unassigned) [Example 1.1] |  |  | 3.1 nM | > 100000 nM |  |
| Cn1nc(NS(C)(=O)=O)c2c(Cl)ccc(-n3c([C@H](Cc4cc(F)cc(F)c4)NC(=O)Cn4ccc(C5CC5)n4)nc4ccc(OC(F)(F)F)cc4c3=O)c21 (single isomer, unassigned) [Example 153] | 0.97 nM | > 1000 nM |  |  |  |
| Cn1nc(NS(C)(=O)=O)c2c(Cl)ccc(-n3c([C@H](Cc4cc(F)cc(F)c4)NC(=O)Cn4ccc(C(F)(F)F)n4)nc4cc(C(F)(F)F)ccc4c3=O)c21 (single isomer, unassigned) [Example 142] | 4.98 nM | > 1000 nM |  |  |  |
| CS(=O)(=O)Nc1nn(CC(F)(F)F)c2c(-c3cc4[nH]ncc4nc3[C@H](Cc3cc(F)cc(F)c3)NC(=O)Cn3nc(C(F)F)c4c3C(F)(F)[C@@H]3C[C@H]43)ccc(Cl)c12 (single isomer, unassigned) [Example 95] | 0.094 nM | > 1000 nM |  |  |  |
| COc1cccc2nc([C@H](Cc3cc(F)cc(F)c3)NC(=O)Cn3nc(C(F)F)c4c3C(F)(F)[C@@H]3C[C@H]43)n(-c3ccc(Cl)c4c(NS(C)(=O)=O)nn(C)c34)c(=O)c12 (mixture of isomers) [Example 170, N—((S)-1-(3-(4-chloro-1-methyl-3-(methylsulfonamido)-1H-indazol-7-yl)-5-methoxy-4-oxo-3,4-dihydroquinazolin-2-yl)-2-(3,5-difluorophenyl)ethyl)-2-((3bS,4aR)-3-(difluoromethyl)-5,5-difluoro-3b,4,4a,5-tetrahydro-1H-cyclopropa[3,4]cyclopenta[1,2-c]pyrazol-1-yl)acetamide] | 0.052 nM | > 1000 nM |  |  |  |
| Cn1nc(NS(C)(=O)=O)c2c(Cl)ccc(-c3cc4cc[nH]c4nc3C(Cc3cc(F)cc(F)c3)NC(=O)Cn3nc(C(F)F)c4c3C(F)(F)[C@@H]3C[C@H]43)c21 (single isomer, unassigned) [Example 86] | 1100 nM | > 10000 nM |  |  |  |
| Cc1cccc2nc([C@H](Cc3cc(F)cc(F)c3)NC(=O)Cn3nc(C(F)F)c4c3C(F)(F)[C@@H]3C[C@H]43)n(-c3ccc(Cl)c4c(NS(C)(=O)=O)nn(C)c34)c(=O)c12 (single isomer, unassigned) [Example 126] | 0.054 nM | > 1000 nM |  |  |  |
| O=C(Cn1nc(C(F)F)c2c1C(F)(F)[C@@H]1C[C@H]21)NC(Cc1cc(F)cc(F)c1)c1nc2ncsc2cc1-c1ccc2scnc2c1 (single isomer, unassigned) [Example 1.2] |  |  | 2850 nM | > 33300 nM |  |
| O=C(Cc1c[nH]c2ccc(F)cc12)NC(Cc1cc(F)cc(F)c1)c1nc2cn[nH]c2cc1-c1ccc2scnc2c1 (single isomer, unassigned) [Example 3.6, N-(1-(6-(benzo[d]thiazol-5-yl)-1H-pyrazolo[4,3-b]pyridin-5-yl)-2-(3,5-difluorophenyl)ethyl)-2-(5-fluoro-1H-indol-3-yl)acetamide] |  |  | 230 nM | 32600 nM |  |
| Cn1nc(NS(C)(=O)=O)c2c(Cl)ccc(-n3c([C@H](Cc4cc(F)cc(F)c4)NC(=O)Cn4nc(C(F)F)c5c4C(F)(F)[C@@H]4C[C@H]54)nc4ccc(F)c(Cl)c4c3=O)c21 (single isomer, unassigned) [Example 161] | 28.9 nM | > 1000 nM |  |  |  |
| Cn1nc(NS(C)(=O)=O)c2c(Cl)ccc(-c3cc4[nH]cnc4nc3C(Cc3cc(F)cc(F)c3)NC(=O)Cn3nc(C(F)F)c4c3C(F)(F)[C@@H]3C[C@H]43)c21 (single isomer, unassigned) [Example 4.2] |  |  | 1 nM | > 10000 nM |  |
| Cn1nc(NS(C)(=O)=O)c2c(Cl)ccc(-n3c([C@H](Cc4cc(F)cc(F)c4)NC(=O)Cn4ccc(C(F)(F)F)n4)nc4ccc(OC(F)(F)F)cc4c3=O)c21 (single isomer, unassigned) [Example 144] | 8.08 nM | > 1000 nM |  |  |  |
| Cn1nc(NS(C)(=O)=O)c2c(Cl)ccc(-c3c(C(Cc4cc(F)cc(F)c4)NC(=O)Cn4nc(C(F)F)c5c4C(F)(F)[C@@H]4C[C@H]54)ncc4[nH]cnc34)c21 (single isomer, unassigned) [Example 7.5] |  |  | 1320 nM | > 10000 nM |  |
| Cc1ccn(CC(=O)N[C@@H](Cc2cc(F)cc(F)c2)c2nc3ncccc3c(=O)n2-c2ccc(Cl)c3c(NS(C)(=O)=O)nn(C)c23)n1 (single isomer, unassigned) [Example 47.2] | 1.7 nM | > 1000 nM |  |  |  |
| Cn1nc(NS(C)(=O)=O)c2c(Cl)ccc(-n3c([C@H](Cc4cc(F)cc(F)c4)NC(=O)Cn4nc(C(F)F)c5c4C(F)(F)[C@@H]4C[C@H]54)nc4cc(Cl)cc(Cl)c4c3=O)c21 (single isomer, unassigned) [Example 180] | 87.4 nM | > 1000 nM |  |  |  |
| Cn1nc(NS(C)(=O)=O)c2c(Cl)ccc(-c3cc4[nH]ccc4nc3C(Cc3cc(F)cc(F)c3)NC(=O)Cn3nc(C(F)F)c4c3C(F)(F)[C@@H]3C[C@H]43)c21 (single isomer, unassigned) [Example 5.3] |  |  | 0.2 nM | > 10000 nM |  |
| Cc1c(F)ccc2c(=O)n(-c3ccc(Cl)c4c(NS(C)(=O)=O)nn(C)c34)c([C@H](Cc3cc(F)cc(F)c3)NC(=O)Cn3nc(C(F)F)c4c3C(F)(F)[C@@H]3C[C@H]43)nc12 (single isomer, unassigned) [Example 108] | 0.85 nM | > 1000 nM |  |  |  |
| O=C(Cn1nc(C(F)F)c2c1C(F)(F)[C@@H]1C[C@H]21)NC(Cc1cc(F)cc(F)c1)c1ncc2nc[nH]c2c1-c1ccc2scnc2c1 (single isomer, unassigned) [Example 7.2] |  |  | 9 nM | 17500 nM |  |
| Cn1nc(NS(C)(=O)=O)c2c(Cl)ccc(-c3cc4scnc4nc3C(Cc3cc(F)cc(F)c3)NC(=O)Cn3nc(C(F)F)c4c3C(F)(F)[C@@H]3C[C@H]43)c21 (single isomer, unassigned) [Example 1.3] |  |  | 0.3 nM | > 10000 nM |  |
| Cn1nc(NS(C)(=O)=O)c2c(Cl)ccc(-n3c([C@H](Cc4cc(F)cc(F)c4)NC(=O)Cn4nc(C(F)F)c5c4C(F)(F)[C@@H]4C[C@H]54)nc4c(F)ccc(F)c4c3=O)c21 (single isomer, unassigned) [Example 148] | 0.13 nM | > 1000 nM |  |  |  |
| CS(=O)(=O)Nc1nn(CC(F)F)c2c(-c3cc4[nH]ncc4nc3[C@H](Cc3cc(F)cc(F)c3)NC(=O)Cn3nc(C(F)F)c4c3C(F)(F)[C@@H]3C[C@H]43)ccc(Cl)c12 (single isomer, unassigned) [Example 93] | 0.099 nM | > 10000 nM |  |  |  |
| Cn1nc(NS(C)(=O)=O)c2c(Cl)ccc(-c3cc4cc[nH]c4nc3[C@H](Cc3cc(F)cc(F)c3)NC(=O)Cn3nc(C(F)F)c4c3C(F)(F)[C@@H]3C[C@H]43)c21 (single isomer, unassigned) [Example 84] |  |  |  |  | EC50 ([1]; Renilla, NL43, Table 1a): 0.94 nM; CC50 at 4 days ([2]; Table 1a, day 4, XTT): > 10000 nM |
| CC(C)c1ccc(-c2c([C@H](Cc3cc(F)cc(F)c3)NC(=O)Cn3nc(C(F)F)c4c3C(F)(F)[C@@H]3C[C@H]43)nc3ncnn3c2N)cn1 [Example 10.32, N—((S)-1-(7-amino-6-(6-isopropylpyridin-3-yl)-[1,2,4]triazolo[1,5-a]pyrimidin-5-yl)-2-(3,5-difluorophenyl)ethyl)-2-((3bS,4aR)-3-(difluoromethyl)-5,5-difluoro-3b,4,4a,5-tetrahydro-1H-cyclopropa[3,4]cyclopenta[1,2-c]pyrazol-1-yl)acetamide] |  |  |  |  | EC50 ([1]; Renilla, NL43, Table 1): 54 nM; CC50 at 4 days ([2]; Table 1, day 4, XTT): > 10000 nM |
